Measured values published in patent publication US10792289B2 (Horizon Orphan LLC, priority 2009, dated 2020).

Tests used:
[1] = tested on: S. aureus; assay: Phase 2 study: presumptive S. aureus density in sputum; format: in vivo, human
Description: (§1) The following dosage regimens (as nebulizer loaded doses) were evaluated: 120 mg QD (daily); 240 mg QD (daily); and 240 mg BID (twice daily).
Patients were assessed on Day 1, 7, 14, and 28, and then up to 28 days after completion of study drug, namely, Days 42 and 56. The end of the study was defined as the last visit of the last patient.

[2] = tested on: stable CF patients; assay: Phase 2 study: time to need for anti-pseudomonal antimicrobials; format: in vivo, human; settings: for Patients Requiring Anti-Pseudomonal Antimicrobials: EE population; for Number (%) of Patients Requiring Anti-Pseudomonal Antimicrobials: MITT population
Description: as §1
Efficacy endpoints including clinical endpoints, pulmonary function tests, and additional microbiological parameters were assessed as change from Day 1 to subsequent visits where the endpoint data was collected. Time to need for intravenous/oral/inhaled anti-pseudomonal antimicrobials were assessed from Day 1 until final visit using survival analysis. The primary population for efficacy analysis was the EE population, but efficacy endpoints were also analyzed using the MITT population.
Time to administration of intravenous/oral/inhaled anti-pseudomonal antimicrobials from Day 1 until Final visit was measured for patients with at least one of the following: decreased exercise tolerance, increased cough, increased sputum/chest congestion, and decreased appetite. The proportion of patients requiring anti-pseudomonal antimicrobials (inhaled or systemic) over time was analyzed using a Cox proportional hazards model.

[3] = EE population, Combined 240 mg QD and BID
[4] = EE population, Combined Levofloxacin
[5] = Table 21 (EE population), 120 mg QD
[6] = Table 21 (EE population), 240 mg BID
[7] = Table 21 (EE population), 240 mg QD
[8] = Table 21 (EE population), Combined 240 mg QD and BID
[9] = Table 21 (EE population), Combined Levofloxacin

Q: Which results are given for `C[C@H]1COc2c(N3CCN(C)CC3)c(F)cc3c(=O)c(C(=O)O)cn1c23` [Levofloxacin, levofloxacin]?
A: presumptive S. aureus density, Change from Baseline to Day 7, Mean ([1]; EE population, 120 mg QD): −1.19 log10 CFU/g sputum; presumptive S. aureus density, Day 1, Mean ([1]; EE population, 120 mg QD): 5.72 log10 CFU/g sputum; presumptive S. aureus density, Day 7, Mean ([1]; EE population, 120 mg QD): 4.53 log10 CFU/g sputum; presumptive S. aureus density, Day 14, Mean ([1]; EE population, 120 mg QD): 5.30 log10 CFU/g sputum; presumptive S. aureus density, Day 28, Mean ([1]; EE population, 120 mg QD): 5.31 log10 CFU/g sputum; presumptive S. aureus density, Change from Baseline to Day 28, Mean ([1]; EE population, 120 mg QD, Day 14): −0.42 log10 CFU/g sputum; presumptive S. aureus density, Change from Baseline to Day 28, Mean ([1]; EE population, 120 mg QD, Day 28): −0.41 log10 CFU/g sputum; presumptive S. aureus density, Change from Baseline to Day 7, Mean ([1]; EE population, 240 mg BID): −0.72 log10 CFU/g sputum; presumptive S. aureus density, Day 1, Mean ([1]; EE population, 240 mg BID): 5.68 log10 CFU/g sputum; presumptive S. aureus density, Day 7, Mean ([1]; EE population, 240 mg BID): 4.96 log10 CFU/g sputum; presumptive S. aureus density, Day 14, Mean ([1]; EE population, 240 mg BID): 4.70 log10 CFU/g sputum; presumptive S. aureus density, Day 28, Mean ([1]; EE population, 240 mg BID): 5.42 log10 CFU/g sputum; presumptive S. aureus density, Change from Baseline to Day 28, Mean ([1]; EE population, 240 mg BID, Day 14): −0.98 log10 CFU/g sputum; presumptive S. aureus density, Change from Baseline to Day 28, Mean ([1]; EE population, 240 mg BID, Day 28): −0.38 log10 CFU/g sputum; presumptive S. aureus density, Change from Baseline to Day 7, Mean ([1]; EE population, 240 mg QD): −0.30 log10 CFU/g sputum; presumptive S. aureus density, Day 1, Mean ([1]; EE population, 240 mg QD): 5.64 log10 CFU/g sputum; presumptive S. aureus density, Day 7, Mean ([1]; EE population, 240 mg QD): 5.34 log10 CFU/g sputum; presumptive S. aureus density, Day 14, Mean ([1]; EE population, 240 mg QD): 5.14 log10 CFU/g sputum; presumptive S. aureus density, Day 28, Mean ([1]; EE population, 240 mg QD): 4.56 log10 CFU/g sputum; presumptive S. aureus density, Change from Baseline to Day 28, Mean ([1]; EE population, 240 mg QD, Day 14): −0.50 log10 CFU/g sputum; presumptive S. aureus density, Change from Baseline to Day 28, Mean ([1]; EE population, 240 mg QD, Day 28): −1.08 log10 CFU/g sputum; presumptive S. aureus density, Change from Baseline to Day 7, Mean [1, 3]: −0.47 log10 CFU/g sputum; presumptive S. aureus density, Day 1, Mean [1, 3]: 5.65 log10 CFU/g sputum; presumptive S. aureus density, Day 7, Mean [1, 3]: 5.18 log10 CFU/g sputum; presumptive S. aureus density, Day 14, Mean [1, 3]: 4.96 log10 CFU/g sputum; presumptive S. aureus density, Day 28, Mean [1, 3]: 4.89 log10 CFU/g sputum; presumptive S. aureus density, Change from Baseline to Day 28, Mean ([1]; EE population, Combined 240 mg QD and BID, Day 14): −0.69 log10 CFU/g sputum; presumptive S. aureus density, Change from Baseline to Day 28, Mean ([1]; EE population, Combined 240 mg QD and BID, Day 28): −0.81 log10 CFU/g sputum; presumptive S. aureus density, Change from Baseline to Day 7, Mean [1, 4]: −0.71 log10 CFU/g sputum; presumptive S. aureus density, Day 1, Mean [1, 4]: 5.68 log10 CFU/g sputum; presumptive S. aureus density, Day 7, Mean [1, 4]: 4.97 log10 CFU/g sputum; presumptive S. aureus density, Day 14, Mean [1, 4]: 5.08 log10 CFU/g sputum; presumptive S. aureus density, Day 28, Mean [1, 4]: 5.04 log10 CFU/g sputum; presumptive S. aureus density, Change from Baseline to Day 28, Mean ([1]; EE population, Combined Levofloxacin, Day 14): −0.60 log10 CFU/g sputum; presumptive S. aureus density, Change from Baseline to Day 28, Mean ([1]; EE population, Combined Levofloxacin, Day 28): −0.67 log10 CFU/g sputum; presumptive S. aureus density, Change from Baseline to Day 7, Mean [1, 5]: −1.14 log10 CFU/g sputum; presumptive S. aureus density, Day 1, Mean [1, 5]: 5.89 log10 CFU/g sputum; presumptive S. aureus density, Day 7, Mean [1, 5]: 4.75 log10 CFU/g sputum; presumptive S. aureus density, Day 14, Mean [1, 5]: 5.48 log10 CFU/g sputum; presumptive S. aureus density, Day 28, Mean [1, 5]: 5.49 log10 CFU/g sputum; presumptive S. aureus density, Change from Baseline to Day 28, Mean ([1]; Table 21 (EE population), 120 mg QD, Day 14): −0.41 log10 CFU/g sputum; presumptive S. aureus density, Change from Baseline to Day 28, Mean ([1]; Table 21 (EE population), 120 mg QD, Day 28): −0.41 log10 CFU/g sputum; presumptive S. aureus density, Change from Baseline to Day 7, Mean [1, 6]: −0.66 log10 CFU/g sputum; presumptive S. aureus density, Day 1, Mean [1, 6]: 5.51 log10 CFU/g sputum; presumptive S. aureus density, Day 7, Mean [1, 6]: 4.65 log10 CFU/g sputum; presumptive S. aureus density, Day 14, Mean [1, 6]: 4.32 log10 CFU/g sputum; presumptive S. aureus density, Day 28, Mean [1, 6]: 4.95 log10 CFU/g sputum; presumptive S. aureus density, Change from Baseline to Day 28, Mean ([1]; Table 21 (EE population), 240 mg BID, Day 14): −0.99 log10 CFU/g sputum; presumptive S. aureus density, Change from Baseline to Day 28, Mean ([1]; Table 21 (EE population), 240 mg BID, Day 28): −0.44 log10 CFU/g sputum; presumptive S. aureus density, Change from Baseline to Day 7, Mean [1, 7]: −0.40 log10 CFU/g sputum; presumptive S. aureus density, Day 1, Mean [1, 7]: 5.63 log10 CFU/g sputum; presumptive S. aureus density, Day 7, Mean [1, 7]: 5.23 log10 CFU/g sputum; presumptive S. aureus density, Day 14, Mean [1, 7]: 4.97 log10 CFU/g sputum; presumptive S. aureus density, Day 28, Mean [1, 7]: 4.48 log10 CFU/g sputum; presumptive S. aureus density, Change from Baseline to Day 28, Mean ([1]; Table 21 (EE population), 240 mg QD, Day 14): −0.66 log10 CFU/g sputum; presumptive S. aureus density, Change from Baseline to Day 28, Mean ([1]; Table 21 (EE population), 240 mg QD, Day 28): −1.15 log10 CFU/g sputum; presumptive S. aureus density, Change from Baseline to Day 7, Mean [1, 8]: −0.51 log10 CFU/g sputum; presumptive S. aureus density, Day 1, Mean [1, 8]: 5.58 log10 CFU/g sputum; presumptive S. aureus density, Day 7, Mean [1, 8]: 4.99 log10 CFU/g sputum; presumptive S. aureus density, Day 14, Mean [1, 8]: 4.70 log10 CFU/g sputum; presumptive S. aureus density, Day 28, Mean [1, 8]: 4.66 log10 CFU/g sputum; presumptive S. aureus density, Change from Baseline to Day 28, Mean ([1]; Table 21 (EE population), Combined 240 mg QD and BID, Day 14): −0.80 log10 CFU/g sputum; presumptive S. aureus density, Change from Baseline to Day 28, Mean ([1]; Table 21 (EE population), Combined 240 mg QD and BID, Day 28): −0.87 log10 CFU/g sputum; presumptive S. aureus density, Change from Baseline to Day 7, Mean [1, 9]: −0.71 log10 CFU/g sputum; presumptive S. aureus density, Day 1, Mean [1, 9]: 5.68 log10 CFU/g sputum; presumptive S. aureus density, Day 7, Mean [1, 9]: 4.91 log10 CFU/g sputum; presumptive S. aureus density, Day 14, Mean [1, 9]: 4.95 log10 CFU/g sputum; presumptive S. aureus density, Day 28, Mean [1, 9]: 4.93 log10 CFU/g sputum; presumptive S. aureus density, Change from Baseline to Day 28, Mean ([1]; Table 21 (EE population), Combined Levofloxacin, Day 14): −0.68 log10 CFU/g sputum; presumptive S. aureus density, Change from Baseline to Day 28, Mean ([1]; Table 21 (EE population), Combined Levofloxacin, Day 28): −0.72 log10 CFU/g sputum; Patients Requiring Anti-Pseudomonal Antimicrobials ([2]; 120 mg QD): 20.0%; Patients Requiring Anti-Pseudomonal Antimicrobials ([2]; 240 mg BID): 20.6%; Patients Requiring Anti-Pseudomonal Antimicrobials ([2]; 240 mg QD): 25.7%; Patients Requiring Anti-Pseudomonal Antimicrobials ([2]; Combined 240 mg QD and BID): 23.2%; Number (%) of Patients Requiring Anti-Pseudomonal Antimicrobials ([2]; 120 mg QD): 18.4%; Number (%) of Patients Requiring Anti-Pseudomonal Antimicrobials ([2]; 240 mg BID): 20.5%; Number (%) of Patients Requiring Anti-Pseudomonal Antimicrobials ([2]; 240 mg QD): 27.0%; Number (%) of Patients Requiring Anti-Pseudomonal Antimicrobials ([2]; Combined 240 mg QD and BID): 23.7%
